Publication PMC8063965 (Journal of medicinal chemistry, 2021)

Experiments:
[1] = test system: Ac-α-tubulin in HeLa cells; test: Immunofluorescence assay, Ac-α-tubulin; type: cell-based; settings: 6 h
full-length hHDAC6 = molecular target: T1, full-length hHDAC6 (Homo sapiens, UniProt Q9UBN7); test: EMSA activity-based inhibition assay, HDAC6; type: biochemical; settings: for fold improvement of potency on moving the fluorine substituent: ortho- and meta-fluoro versus parent analog, selectivity was lost
T1 sequence (Q9UBN7 1-1215): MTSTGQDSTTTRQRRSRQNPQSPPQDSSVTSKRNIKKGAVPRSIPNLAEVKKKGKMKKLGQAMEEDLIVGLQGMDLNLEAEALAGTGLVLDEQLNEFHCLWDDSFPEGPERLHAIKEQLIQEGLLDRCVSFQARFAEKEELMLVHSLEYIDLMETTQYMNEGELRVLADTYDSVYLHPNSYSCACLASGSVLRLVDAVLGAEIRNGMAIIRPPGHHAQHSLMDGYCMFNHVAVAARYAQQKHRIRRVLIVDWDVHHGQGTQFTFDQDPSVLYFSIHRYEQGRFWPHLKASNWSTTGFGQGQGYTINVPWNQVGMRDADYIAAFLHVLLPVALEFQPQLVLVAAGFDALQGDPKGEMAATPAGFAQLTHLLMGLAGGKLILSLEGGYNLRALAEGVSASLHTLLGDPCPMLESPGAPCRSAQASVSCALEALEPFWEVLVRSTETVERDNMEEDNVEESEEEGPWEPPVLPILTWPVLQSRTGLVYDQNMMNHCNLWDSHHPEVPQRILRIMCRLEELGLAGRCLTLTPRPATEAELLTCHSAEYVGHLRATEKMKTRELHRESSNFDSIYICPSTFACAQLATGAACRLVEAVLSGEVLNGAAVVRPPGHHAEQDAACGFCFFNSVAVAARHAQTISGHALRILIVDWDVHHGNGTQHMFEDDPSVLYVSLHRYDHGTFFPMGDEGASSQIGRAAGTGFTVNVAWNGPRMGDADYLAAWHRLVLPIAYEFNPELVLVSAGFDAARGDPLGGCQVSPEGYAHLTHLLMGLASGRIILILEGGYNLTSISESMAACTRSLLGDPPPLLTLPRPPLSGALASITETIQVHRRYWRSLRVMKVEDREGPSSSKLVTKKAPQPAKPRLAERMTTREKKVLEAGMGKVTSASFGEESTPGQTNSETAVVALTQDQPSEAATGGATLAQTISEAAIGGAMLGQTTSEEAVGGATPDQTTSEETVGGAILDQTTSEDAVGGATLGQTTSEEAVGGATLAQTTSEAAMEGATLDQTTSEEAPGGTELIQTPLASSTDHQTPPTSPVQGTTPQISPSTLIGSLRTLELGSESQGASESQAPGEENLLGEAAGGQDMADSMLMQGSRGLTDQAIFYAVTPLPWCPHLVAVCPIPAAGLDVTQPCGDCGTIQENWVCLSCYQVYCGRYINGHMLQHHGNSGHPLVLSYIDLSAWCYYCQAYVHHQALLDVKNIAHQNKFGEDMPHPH

drHDAC6 CD2 = molecular target: T2, drHDAC6 CD2 (Danio rerio, UniProt F8W4B7); test: Fluorescence polarization; type: binding, Danio rerio (zebrafish); settings: orthogonal fluorescence polarization assay
T2 sequence (F8W4B7 440-798 limits assumed): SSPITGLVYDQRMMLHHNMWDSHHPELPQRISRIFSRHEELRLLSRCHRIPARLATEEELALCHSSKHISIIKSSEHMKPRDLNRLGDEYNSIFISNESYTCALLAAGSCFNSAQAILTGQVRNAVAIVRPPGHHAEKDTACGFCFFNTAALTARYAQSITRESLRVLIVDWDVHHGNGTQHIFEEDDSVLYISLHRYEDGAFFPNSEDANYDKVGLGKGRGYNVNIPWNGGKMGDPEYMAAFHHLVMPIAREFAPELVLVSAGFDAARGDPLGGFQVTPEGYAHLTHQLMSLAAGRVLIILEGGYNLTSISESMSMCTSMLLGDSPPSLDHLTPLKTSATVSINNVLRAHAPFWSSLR

HDAC6 = molecular target: T3, HDAC6 (Homo sapiens, UniProt Q9UBN7); test: Intact mass spectrometry analysis of the enzyme; settings: intact mass spectrometry on treatment with compound
T3 sequence (Q9UBN7 1-1215): T1 sequence (Q9UBN7 1-1215)

[2] = test system: six leukemic cancer cells; test: Cytotoxicity assay; type: cell-based; settings: 72 h, read-out: average anti-proliferative IC50
[3] = test system: 'normal' MRC9 lung fibroblasts; test: Cytotoxicity assay; type: cell-based; settings: 72 h
[4] = test system: Ac-α-tubulin in MV4–11 cells; test: Western blot of Ac-α-tubulin; type: cell-based
[5] = test system: Ac-histone H3 in MV4–11 cells; test: Western blot of Ac-histones; type: cell-based
Ac-histone in HeLa cells = test: Immunofluorescence assay, Ac-histone; type: cell-based; settings: 0.1 μM or 2 μM, 6 h
MV4–11 cells [6] = test: FACS apoptosis detection assay; type: cell-based
MV4–11 cells [7] = test: Detection of ROS generation; type: cell-based; settings: MV4–11, 10 μM, up to 4 h, versus DMSO control
[8] = Mouse plasma stability assay; type: in vitro ADME; settings: triplicate
[9] = Pooled human whole blood stability assay; type: in vitro ADME; settings: triplicate

With `O=C(CCCCCCNC(=O)c1cnc(N(c2ccccc2)c2ccccc2Cl)nc1)NO` [Citarinostat, reference compound] the “accumulation of Ac-α-tubulin (red stain) at 2 μM” value [1] was “slightly less prominent”.

With `O=C(NO)c1ccc(CN(Cc2ccncc2)S(=O)(=O)c2c(F)c(F)c(F)c(F)c2F)cc1` [Compound 8] the HDAC6 selectivity (full-length hHDAC6; against 4 representative HDAC homologs (Table 1)) was > 71 fold.

In the case of `O=C(NO)c1ccc(CN(Cc2cccc(F)c2)S(=O)(=O)c2cc(F)c(F)c(F)c2F)cc1` [Compound 12], the “fold improvement of potency on moving the fluorine substituent” value (full-length hHDAC6) is reported as 2 fold.

For `O=C(NO)c1ccc(CN(Cc2ccccc2F)S(=O)(=O)c2cc(F)c(F)c(F)c2F)cc1` [Compound 13], the “fold improvement of potency on moving the fluorine substituent” value (full-length hHDAC6) was 2 fold.

For `O=C(NO)c1ccc(CN(Cc2ccccn2)S(=O)(=O)c2cc(F)c(F)c(F)c2F)cc1` [Compound 14], the “fold more potent against HDAC6 compared to 9” value (full-length hHDAC6; relative to 9) was 2 fold.

With `O=C(NO)c1ccc(CN(Cc2cccnc2)S(=O)(=O)c2cc(F)c(F)c(F)c2F)cc1` [TO-317] the “potency of interaction with drHDAC6 CD2 (FP)” value (drHDAC6 CD2) was 0.004 µM, the “covalent modification of the enzyme” value (HDAC6) was “no covalent modification of the enzyme was observed” and the IC50 [2] was < 2 µM. For the same compound, the “activity in normal cells” value [3] was “minimal activity”, the “Ac-α-tubulin levels at 0.25 μM” value ([4]; MV4–11 cells, 0.25 μM, 6 hours) was “significant increase” and the “lowest concentration giving preferential increase in acetylated α-tubulin” value ([4]; dose-dependent, cells not given) was 50 nM. For the same compound, the Ac-histones accumulation ([5]; MV4–11 cells, at 0.25 μM, 6 hours) was “minimal accumulation”, the “concentration required to observe distinct acetylation of H3 histone” value ([5]; cells not given) was ~ 0.75 μM and the “accumulation of Ac-α-tubulin (red stain) at 2 μM” value [1] was “significant accumulation”. For the same compound, the “levels of Ac-histone (green stain)” value (Ac-histone in HeLa cells) was “do not change significantly”, the “early and late apoptotic cell populations, combined” value (MV4–11 cells [6]; MV4–11, 0.25 μM) was 11% and the “early and late apoptotic cell populations, combined” value (MV4–11 cells [6]; MV4–11, 2 μM) was 65%. The “early and late apoptotic cell populations, combined” value (MV4–11 cells [6]; MV4–11, 4 μM) was 73%, the “necrosis (UL sub-population)” value (MV4–11 cells [6]; MV4–11, across the range of concentrations tested, versus DMSO control) was “does not show statistically different changes to necrosis” and the ROS generation (MV4–11 cells [7]) was “markedly increased levels of ROS after 2 h incubation”. The “Remaining percentage concentration, 0 min” value [8] was 100% and the “Remaining percentage concentration, 0 min” value [9] was 100%.
